# Assay results as given in patent publication US20220265618A1, “METHODS OF TREATING PROSTATE CANCER” (Celgene Quanticel Research, Inc., priority 2021, published 2022).
# What was measured:
# [1] = test system: KLK3 gene expression in VCaP cells; test: qPCR gene expression in VCaP cells: KLK3; assay type: cell-based, human; conditions: 400 nM, 48 h
# Description: (§1) KLK3, TMPRSS2,MYC and HEXIM1 genes expression was determined by qPCR.
# [2] = test system: MYC gene expression in 22Rv1 cells; test: qPCR gene expression in 22Rv1 cells: MYC; assay type: cell-based, human; conditions: 22RV.1 cells, 48 hours
# Description: as §1
# [3] = test system: DU145 cells; test: Proliferation assay (Cell Titer-Glo), DU145 cells; assay type: cell-based, human; conditions: 3 days (FIG. 10)
# Description: (§2) Proliferation was measured both at Day 0 and at Day 3, and percent of growth was determined using Luciferase assay.
# (§3) Cell culture: VCaP, LNCaP, 22Rv1, DU145 and PC3 cancer cell lines were obtained from ATCC. VCaP cells were cultured in DMEM media supplemented with 8% FBS, LNCaP cells were cultured in RPMI1640 media supplemented with 10% FBS, and PC3 cells were cultured in F12 K media supplemented with 10% FBS. LNCaP_AR CRISPRi gCTR, LNCaP_AR CRISPRi gTP53/RB1, and LNCaP_AR shTP53/RB1 cells were obtained from Charles L. Sawyers lab and were cultured in RPMI1640 supplemented with 10% FBS+2 mM L-Glutamine+1 mM Sodium Pyruvate+10 mM Hepes. DKO and TKO cells were obtained from David W. Goodrich lab and were cultured in DMEM media supplemented with 2.5% charcoal-stripped FBS+5 μg/mL of insulin/transferring/selenium (ITS)+10 μg/mL of bovine pituitary extract (BPE)+10 μg/mL of epidermal growth factor+1 μg/mL of cholera toxin. DKO cells have been derived from intact mice so were cultured also in presence of 1nM R1881.
# (§4) Proliferation Assay: Cells were plated in a 384-well format and were allowed to adhere 24h before treatment. Drugs were titrated 1:3 from 10 μM to 0.1 nM with 9 doses in triplicate. Cell proliferation was measured on the day of treatment (Day 0) and on Day 3 or Day 6 or Day 14 using Cell Titer-Glo reagent (Promega) according to the manufacturer's instructions. […]
# [4] = test system: VCaP cells; test: Proliferation assay (Cell Titer-Glo), VCaP cells; assay type: cell-based, human
# Description: as §2
# (§5) Proliferation was measured both at Day 0 and at Day 6, and percent of growth was determined using Luciferase assay.
# as §3, with “DKO cells have been derived from intact mice so were cultured also in presence of 1nM R1881.” left out
# Proliferation Assay: Cells were plated in a 384-well format and were allowed to adhere 24h before treatment. […] Cell proliferation was measured on the day of treatment (Day 0) and on Day 3 or Day 6 or Day 14 using Cell Titer-Glo reagent (Promega) according to the manufacturer's instructions. […]
# [5] = test system: MYC gene expression in VCaP cells; test: qPCR gene expression in VCaP cells: MYC; assay type: cell-based, human; conditions: 48 h
# Description: as §1
# [6] = test system: LNCaP_AR CRISPRi guide TP53/RB1 cells; test: Proliferation assay (Cell Titer-Glo), LNCaP_AR CRISPRi TP53/RB1 cells; assay type: cell-based, human
# Description: (§6) Proliferation was measured both at Day 0 and at Day 14, and percent of growth was determined using Luciferase assay.
# as §3
# (§7) Proliferation Assay: Cells were plated in a 384-well format and were allowed to adhere 24h before treatment. Drugs were titrated 1:3 from 10 μM to […] with 9 doses in triplicate. Cell proliferation was measured on the day of treatment (Day 0) and on Day 3 or Day 6 or Day 14 using Cell Titer-Glo reagent (Promega) according to the manufacturer's instructions. Cell growth normalized to the DMSO vehicle control and to Day 0 was fitted by nonlinear regression using GraphPad Prism 7.03 (GraphPad Software, Inc.).
# [7] = test system: TMPRSS2 gene expression in VCaP cells; test: qPCR gene expression in VCaP cells: TMPRSS2; assay type: cell-based, human; conditions: 400 nM, 48 h
# Description: as §1
# [8] = test system: LNCaP cells overexpressing AR (LNCaP_AR); test: Proliferation assay (Cell Titer-Glo), LNCaP_AR cells; assay type: cell-based, human
# Description: as §2, §5, §6, §3, §7
# [9] = test system: TMPRSS2 gene expression in 22Rv1 cells; test: qPCR gene expression in 22Rv1 cells: TMPRSS2; assay type: cell-based, human; conditions: 22RV.1 cells, 48 hours
# Description: as §1
# [10] = test system: HEXIM1 gene expression in 22Rv1 cells; test: qPCR gene expression in 22Rv1 cells: HEXIM1; assay type: cell-based, human; conditions: 22RV.1 cells, 400 nM, 48 hours
# Description: as §1
# [11] = test system: Neuroendocrine prostate cancer models; test: Proliferation assay, all Neuroendocrine prostate cancer models tested (summary); assay type: cell-based; conditions: summary over all NEPC models
# Description: as §3, §4
# [12] = test system: 22Rv1 cells; test: Proliferation assay (Cell Titer-Glo), 22Rv1 cells; assay type: cell-based; conditions: Homo sapiens, 22Rv1, 72 h; 3 days (FIG. 6); read-out: IC50, proliferation of 22RV.1 cells
# Description: as §2, §3, §4
# [13] = test system: LNCaP cells; test: Proliferation assay (Cell Titer-Glo), LNCaP cells; assay type: cell-based, human
# Description: as §2, §5, §3, §7
# [14] = test system: DKO cells (deleted for Pten and Rb1); test: Proliferation assay (Cell Titer-Glo), DKO cells; assay type: cell-based, mouse
# Description: as §6, §3, §4
# [15] = test system: KLK3 gene expression in 22Rv1 cells; test: qPCR gene expression in 22Rv1 cells: KLK3; assay type: cell-based, human; conditions: 22RV.1 cells, 48 hours
# Description: as §1
# [16] = test system: LNCaP_AR shTP53/RB1 cells; test: Proliferation assay (Cell Titer-Glo), LNCaP_AR shTP53/RB1 cells; assay type: cell-based, human
# Description: as §6, §3, §7
# [17] = test system: HEXIM1 gene expression in VCaP cells; test: qPCR gene expression in VCaP cells: HEXIM1; assay type: cell-based, human; conditions: 48 h
# Description: as §1
# [18] = test system: TKO cells (deleted for Pten, Rb1, and Trp53); test: Proliferation assay (Cell Titer-Glo), TKO cells; assay type: cell-based, mouse
# Description: as §5, §3, §4
# [19] = test system: PC3 cells; test: Proliferation assay (Cell Titer-Glo), PC3 cells; assay type: cell-based, human; conditions: 3 days (FIG. 11)
# Description: as §2, §3, §4
smiles,measurement,setting,value
"Cn1cc(-c2cc(S(C)(=O)=O)ccc2OCC2CC2)c2ccccc2c1=O [Compound A, 4-[2-(cyclopropylmethoxy)-5-methylsulfonylphenyl]-2-methylisoquinolin-1-one]",KLK3 downregulation as compared to DMSO,[1],80.2%
same,MYC downregulation,[2]; 40 nM,64%
same,MYC downregulation,[2]; 400 nM,93.9%
same,reduction of DU145 proliferation,[3],76%
same,IC50,"[3]; Homo sapiens, DU-145, 72 h",680 nM
same,growth arrest of VCaP cell proliferation,"[4]; at 0.3 μM Compound A, 3 and 6 days (FIGS. 1A-1B)",100%
same,cytotoxic effects in VCaP cells,[4]; at the highest concentration (FIGS. 1A-1B),cytotoxic effects
same,reduction in MYC expression,[5]; 40 nM,18.9%
same,MYC downregulation,[5]; 400 nM,81.1%
same,IC50,"[6]; Homo sapiens, LNCaP/AR, treated Day 0 and Day 6, total 14 days (FIG. 8A)",220 nM
same,cell death in LNCaP_AR cells depleted for TP53 and RB1 (CRISPRi),[6]; summary statement,induced cell death
same,growth arrest of LNCaP_AR CRISPRi guide TP53/RB1 cells,"[6]; treated Day 0 and Day 6, total 14 days (FIG. 8A)",100%
same,TMPRSS2 downregulation as compared to DMSO,[7],26.3%
same,growth arrest of LNCaP_AR cells,[8]; 3 days (FIG. 4A),complete growth arrest
same,cytotoxicity in LNCaP_AR cells,"[8]; highest dose, longer treatment (6 days, FIG. 4B)",cytotoxicity
same,concentration causing cell death in LNCaP_AR cells on re-treatment,"[8]; treated Day 0 and Day 6, total 14 days (FIG. 5)",> 1 µM
same,TMPRSS2 reduction,[9]; 40 nM,93.2%
same,TMPRSS2 reduction,[9]; 400 nM,95.3%
same,HEXIM1 induction,[10],31%
same,reduction of cell proliferation in all Neuroendocrine prostate cancer models tested,[11],> 76%
same,IC50,[12],200 nM
same,IC50,"[13]; Homo sapiens, LNCaP, 144 h, prolonged treatment (6 days) (FIG. 3B), read-out: half maximal inhibitory concentration (IC50), LNCaP cells",490 nM
same,growth arrest of LNCaP cells,[13]; after 3 days of treatment (FIG. 3A),100%
same,cell death in LNCaP cells,[13]; prolonged treatment (6 days),induced cell death
same,growth arrest of DKO cells,"[14]; at 1 uM, treated Day 0 and Day 6, total 14 days (FIG. 9B)",100%
same,cytotoxic activity in DKO cells,[14]; at the highest concentrations (FIG. 9B),cytotoxic activity
same,KLK3 downregulation,[15]; 40 nM,98.8%
same,KLK3 downregulation,[15]; 400 nM,99.51%
same,IC50,"[16]; Homo sapiens, LNCaP/AR, treated Day 0 and Day 6, total 14 days (FIG. 8B)",60 nM
same,cell death in LNCaP_AR cells depleted for TP53 and RB1 (shRNA),[16]; summary statement,induced cell death
same,growth arrest of LNCaP_AR shTP53/RB1 cells,"[16]; treated Day 0 and Day 6, total 14 days (FIG. 8B)",100%
same,HEXIM1 upregulation as compared to DMSO,[17]; 40 nM,121.1%
same,HEXIM1 upregulation as compared to DMSO,[17]; 400 nM,754%
same,growth arrest of TKO cells,"[18]; at 3 uM, treated Day 0 and Day 3, total 6 days (FIG. 9A)",100%
same,cytotoxic activity in TKO cells,[18]; at the highest concentrations (FIG. 9A),cytotoxic activity
same,reduction of PC3 proliferation,[19],80%
same,IC50,"[19]; Homo sapiens, PC-3, 72 h",550 nM
